What is called solubility is how much of the substance goes into solution per volume.

Values after ≈ are worked out from the molar mass of the structure shown. Structures can show the parent of a compound that is named as a salt. Where two headings read alike, the source gives them in different places.

Data on 26 compounds can be found in patent EP0024616A1, “1-(3'-Acyloxyphenyl)-2-aminoethanols, their acid addition salts, pharmaceutical compositions containing them and process for their preparation” (Klinge Pharma GmbH, priority 1979, dated 1981).

Data set [1] concerns Blutdruck der Katze. Description: Blood pressure increasing effect after intraduodenal application in anaesthetised cats. The data set is classed as in vivo, Katzen. The conditions noted are these: Felis catus, aqueous solution, anaesthetised cat; for change in vivo at 3 mg/kg: 3 mg/kg intraduodenal; for change in vivo at 10 mg/kg: 10 mg/kg intraduodenal; for change in vivo at 30 mg/kg: 30 mg/kg intraduodenal; for change in vivo at 1 mg/kg: 1 mg/kg intraduodenal; for change in vivo at 0.3 mg/kg: 0.3 mg/kg intraduodenal. The protocol: An 2-4 kg schweren, männlichen und weiblichen, narkotisierten Katzen [Chloralose (70 mg/kg) und Urethan 25 proz. (200 mg/kg)i.p.] wurden die Substanzen in wäßriger Lösung intraduodenal appliziert. Der Anstieg des systolischen und des diastolischen Blutdruckes wird in Prozenten des Ausgangswertes angegeben. N bedeutet Anzahl der Versuchstiere pro Versuch.

The test system of data set [2] is Blutdruck. The note with it: oral; from the literature (E. Muschöll 1967); cited from earlier work.
A short description of data set [3]: Minimum solubility in water. The conditions noted are these: for Mindestlöslichkeit in Wasser: Tab. 1, minimum solubility (lower bound) of the salts in water; for solubility: water.
The mark [4] stands for this setting: read-out: Diastol. Blutdruck (Anstieg).
The mark [5] stands for this setting: read-out: Systol. Blutdruck (Anstieg).

Consider `NCC(O)c1cccc(O)c1` (racemic) [Norfenefrin, DL-1-(3'-Hydroxyphenyl)-2-aminoethanol, reference compound], for which, in data set [1] (setting [4]), the change in vivo at 3 mg/kg was found to be 18 ± 6%, the change in vivo at 10 mg/kg is 25 ± 5% and the change in vivo at 30 mg/kg was found to be 37 ± 9%. In data set [1] (setting [5]), the change in vivo at 3 mg/kg is 25 ± 9%, the change in vivo at 10 mg/kg turned out to be 34 ± 7% and the change in vivo at 30 mg/kg is 41 ± 7%. For the same compound, in data set [2], the “orale Wirksamkeit” value is “geringe orale Wirksamkeit”.

For the compound `CC(=O)Oc1cccc(C(O)CN)c1.Cl` (centres unmarked) [Verbindung 1, 1-(3'-Acetoxyphenyl)-2-aminoethanol-hydrochlorid], in data set [1] (setting [4]), the change in vivo at 1 mg/kg came out at 20 ± 10%, the change in vivo at 3 mg/kg is 29 ± 6% and the change in vivo at 10 mg/kg was determined as 48 ± 8%. In data set [1] (setting [5]), the change in vivo at 1 mg/kg was 27 ± 10%, the change in vivo at 3 mg/kg came to 35 ± 8% and the change in vivo at 10 mg/kg is 59 ± 6%. Also, the “Mindestlöslichkeit in Wasser” value in data set [3] worked out at 50%.

With `CCC(=O)Oc1cccc(C(O)CN)c1` (centres unmarked) [Verbindung 2], the “Mindestlöslichkeit in Wasser” value in data set [3] worked out at 50%.

As for `CCCC(=O)Oc1cccc(C(O)CN)c1` (centres unmarked) [Verbindung 3], in data set [3], the “Mindestlöslichkeit in Wasser” value amounted to 50%.

`CC(C)C(=O)Oc1cccc(C(O)CN)c1` (centres unmarked) [Verbindung 4]: the “Mindestlöslichkeit in Wasser” value in data set [3] turned out to be 50%.

With `CCCCC(=O)Oc1cccc(C(O)CN)c1` (centres unmarked) [Verbindung 5], in data set [1] (setting [4]), the change in vivo at 0.3 mg/kg came to 19 ± 11%, the change in vivo at 1 mg/kg worked out at 31 ± 8% and the change in vivo at 3 mg/kg came to 29 ± 8%. For the same compound, in data set [1] (setting [5]), the change in vivo at 0.3 mg/kg worked out at 20 ± 10%, the change in vivo at 1 mg/kg is 33 ± 7% and the change in vivo at 3 mg/kg came to 42 ± 10%. Also, the “Mindestlöslichkeit in Wasser” value in data set [3] is given as 50%.

Regarding `CC(C)CC(=O)Oc1cccc(C(O)CN)c1` (centres unmarked) [Verbindung 6], the “Mindestlöslichkeit in Wasser” value in data set [3] was 50%.

For `CC(C)(C)C(=O)Oc1cccc(C(O)CN)c1.Cl` (centres unmarked) [Verbindung 7, 1-(3'-Pivaloyloxyphenyl)-2-aminoethanol-hydrochlorid], in data set [1] (setting [4]), the change in vivo at 1 mg/kg turned out to be 17 ± 6%, the change in vivo at 3 mg/kg was found to be 29 ± 5% and the change in vivo at 10 mg/kg turned out to be 74 ± 13%. Besides, in data set [1] (setting [5]), the change in vivo at 1 mg/kg turned out to be 17 ± 7%, the change in vivo at 3 mg/kg worked out at 37 ± 6% and the change in vivo at 10 mg/kg was 79 ± 8%. The “Mindestlöslichkeit in Wasser” value in data set [3] is reported as 50%.

For the compound `CCCCCC(=O)Oc1cccc(C(O)CN)c1` (centres unmarked) [Verbindung 8], the “Mindestlöslichkeit in Wasser” value in data set [3] came out at 50%.

For `CC(C)CCC(=O)Oc1cccc(C(O)CN)c1` (centres unmarked) [Verbindung 9], the “Mindestlöslichkeit in Wasser” value in data set [3] turned out to be 50%.

In the case of `CCC(CC)C(=O)Oc1cccc(C(O)CN)c1` (centres unmarked) [Verbindung 10], in data set [1] (setting [4]), the change in vivo at 1 mg/kg amounted to 19 ± 3%, the change in vivo at 3 mg/kg stood at 48 ± 11% and the change in vivo at 10 mg/kg amounted to 89 ± 14%. For the same compound, in data set [1] (setting [5]), the change in vivo at 1 mg/kg amounted to 25 ± 5%, the change in vivo at 3 mg/kg worked out at 48 ± 11% and the change in vivo at 10 mg/kg is 85 ± 11%. The “Mindestlöslichkeit in Wasser” value in data set [3] was found to be 50%.

For `CC(C)(C)CC(=O)Oc1cccc(C(O)CN)c1` (centres unmarked) [Verbindung 11], the “Mindestlöslichkeit in Wasser” value in data set [3] worked out at 50%.

Take `CCCCCCC(=O)Oc1cccc(C(O)CN)c1.Cl` (centres unmarked) [Verbindung 12, 1-(3'-Heptanoyloxyphenyl)-2-aminoethanol-hydrochlorid]: in data set [1] (setting [4]), the change in vivo at 1 mg/kg was determined as 17 ± 7%, the change in vivo at 3 mg/kg is 65 ± 17% and the change in vivo at 10 mg/kg worked out at 51 ± 11%. Also, in data set [1] (setting [5]), the change in vivo at 1 mg/kg was found to be 21 ± 8%, the change in vivo at 3 mg/kg came to 70 ± 14% and the change in vivo at 10 mg/kg is 61 ± 10%. Besides, the “Mindestlöslichkeit in Wasser” value in data set [3] was determined as 50%.

As to `CCCC(CC)(CC)C(=O)Oc1cccc(C(O)CN)c1` (centres unmarked) [Verbindung 13], the “Mindestlöslichkeit in Wasser” value in data set [3] stood at 50%.

Take `CCCCCCCCCCCC(=O)Oc1cccc(C(O)CN)c1` (centres unmarked) [Verbindung 14]: in data set [1] (setting [4]), the change in vivo at 1 mg/kg was determined as 16 ± 4%, the change in vivo at 3 mg/kg amounted to 25 ± 8% and the change in vivo at 10 mg/kg amounted to 90 ± 25%. In data set [1] (setting [5]), the change in vivo at 1 mg/kg amounted to 23 ± 6%, the change in vivo at 3 mg/kg was 39 ± 9% and the change in vivo at 10 mg/kg turned out to be 87 ± 15%. The compound also registered a solubility in data set [3] of 150 mg/mL (≈ 447 mM).

Turning to `NCC(O)c1cccc(OC(=O)Cc2ccccc2)c1` (centres unmarked) [Verbindung 15], in data set [1] (setting [4]), the change in vivo at 1 mg/kg was 20 ± 4%, the change in vivo at 3 mg/kg worked out at 36 ± 11% and the change in vivo at 10 mg/kg was 81 ± 15%. In data set [1] (setting [5]), the change in vivo at 1 mg/kg is 24 ± 3%, the change in vivo at 3 mg/kg stood at 50 ± 11% and the change in vivo at 10 mg/kg came to 88 ± 15%. For the same compound, the “Mindestlöslichkeit in Wasser” value in data set [3] is 50%.

Regarding `CC(C(=O)Oc1cccc(C(O)CN)c1)c1ccccc1` (centres unmarked) [Verbindung 16], in data set [1] (setting [4]), the change in vivo at 1 mg/kg was 10 ± 3%, the change in vivo at 3 mg/kg came out at 31 ± 8% and the change in vivo at 10 mg/kg came to 55 ± 13%. Moreover, in data set [1] (setting [5]), the change in vivo at 1 mg/kg is 20 ± 7%, the change in vivo at 3 mg/kg amounted to 38 ± 12% and the change in vivo at 10 mg/kg was found to be 63 ± 9%. In data set [3], the “Mindestlöslichkeit in Wasser” value was 50%.

Regarding `CCC(C(=O)Oc1cccc(C(O)CN)c1)c1ccccc1` (centres unmarked) [Verbindung 17], in data set [1] (setting [4]), the change in vivo at 1 mg/kg turned out to be 25 ± 7%, the change in vivo at 3 mg/kg came to 31 ± 6% and the change in vivo at 10 mg/kg turned out to be 38 ± 6%. For the same compound, in data set [1] (setting [5]), the change in vivo at 1 mg/kg was 29 ± 7%, the change in vivo at 3 mg/kg is 42 ± 9% and the change in vivo at 10 mg/kg turned out to be 47 ± 10%. In data set [3], this compound returned a solubility of 200 mg/mL (≈ 668 mM).

Consider `NCC(O)c1cccc(OC(=O)c2ccccc2)c1` (centres unmarked) [Verbindung 18], for which the “Mindestlöslichkeit in Wasser” value in data set [3] was found to be 50%.

As to `Cc1ccccc1C(=O)Oc1cccc(C(O)CN)c1` (centres unmarked) [Verbindung 19], in data set [1] (setting [4]), the change in vivo at 1 mg/kg came to 15 ± 7%, the change in vivo at 3 mg/kg turned out to be 21 ± 6% and the change in vivo at 10 mg/kg was 32 ± 11%. Further, in data set [1] (setting [5]), the change in vivo at 1 mg/kg is 17 ± 5%, the change in vivo at 3 mg/kg came out at 26 ± 7% and the change in vivo at 10 mg/kg came out at 37 ± 7%. Moreover, the “Mindestlöslichkeit in Wasser” value in data set [3] amounted to 50%.

Turning to `Cc1ccc(C(=O)Oc2cccc(C(O)CN)c2)cc1` (centres unmarked) [Verbindung 20, 1-[3'-(4'-Methylbenzoyloxy)phenyl]-2-aminoethanol-hydrochlorid], in data set [1] (setting [4]), the change in vivo at 0.3 mg/kg stood at 17 ± 10%, the change in vivo at 1 mg/kg turned out to be 26 ± 6% and the change in vivo at 3 mg/kg was 100 ± 24%. Moreover, in data set [1] (setting [5]), the change in vivo at 0.3 mg/kg is 20 ± 10%, the change in vivo at 1 mg/kg is 28 ± 6% and the change in vivo at 3 mg/kg turned out to be 122 ± 25%. Also, the “Mindestlöslichkeit in Wasser” value in data set [3] turned out to be 50%.

In the case of `CC(=O)NCC(O)c1cccc(O)c1` (centres unmarked) [Verbindung 21, reference compound], the concentration in solution in data set [3] (solubility) was 100 mg/mL (≈ 512 mM).

Regarding `CC(=O)NCC(OC(C)=O)c1cccc(O)c1` (centres unmarked) [Verbindung 22, reference compound], the solubility in data set [3] was 12 mg/mL (≈ 50.6 mM).

With `CC(C)(C)C(=O)NCC(O)c1cccc(O)c1` (centres unmarked) [Verbindung 23, reference compound], the concentration in solution in data set [3] (solubility) was 10 mg/mL (≈ 42.1 mM).

In the case of `CC(C)(C)C(=O)NCC(OC(=O)C(C)(C)C)c1cccc(O)c1` (centres unmarked) [Verbindung 24, reference compound], in data set [3], the solubility was determined as 0.1 mg/mL (≈ 0.311 mM).

`CC(C)(C)C(=O)NCC(OC(=O)C(C)(C)C)c1cccc(OC(=O)C(C)(C)C)c1` (centres unmarked) [Verbindung 25, reference compound] came in with a solubility in data set [3] of 0.1 mg/mL (≈ 0.247 mM).
